# Source: patent publication US6746623B2, “Alkyl glycidyl ether-capped diamine foam controlling agent” (Air Products and Chemicals, Inc., priority 2002, dated 2004)
# Marks after values point to notes of the source that are not given here.
# Key:
# [1] = Dynamic surface tension of aqueous solutions, maximum bubble pressure method; type: physicochemical
# Text: Dynamic surface tension data were obtained for the soluble portion of these samples using the maximum bubble pressure method at bubble rates from 0.1 bubbles/sec (b/s) to 20 b/s.
# The relative efficiency of surface tension reduction can be obtained by comparing surface tension reduction of solutions containing the same amount of different surfactants. Such data are given for 0.1 wt % solutions of the foam control agents at 0.1, 1, 6 and 20 bubbles/second (b/s). The limiting surface tensions at 0.1, 1, 6 and 20 b/s represent the lowest surface tensions in water which can be achieved at the given surface creation rates for a given surfactant regardless of the amount of surfactant used and is used to evaluate the effectiveness of a surfactant. In most cases the limiting surface tension was taken at 1.0 wt % since the foam control agent was insoluble at this concentration. In the case where the foam control agent was soluble at 1.0 wt %, the limiting surface tension was taken at 5.0 wt % (where the samples were insoluble). These values give information about the relative ability to a surfactant to reduce surface defects under near-equilibrium conditions (0.1 b/s) through very dynamic conditions (20 b/s).
# [2] = Foam test of DOSS solutions with added foam control agent (based on ASTM D 1173-53); type: physicochemical; settings: 0.1 wt % foam control agent added to 0.1 wt % DOSS in water
# Text: Dioctyl sodium sulfosuccinate (DOSS) is a commonly used surfactant in waterborne compositions. DOSS is capable of forming stable foams when dissolved in water. The foam control characteristics of various foam control agents may be assessed by measuring the foam generated by a 0.1 wt % aqueous solution of DOSS and comparing this to the foam generated after the addition of foam control agent to a 0.1 wt % DOSS solution. The DOSS utilized in these measurements was an Aerosol OT 75% surfactant obtained from Cytec Industries. The foaming and foam stability of DOSS were measured using a procedure based upon ASTM D 1173-53 at ambient temperature, typically 23° C.
# In these tests, an aqueous solution of DOSS or the filtrate from the DOSS/foam control agent mixture is added from an elevated foam pipette to a foam receiver containing the same solution. The foam height is measured at the completion of the addition (“Initial Foam Height”) and the time required for the foam to dissipate at the air-liquid interface (“Time to 0 Foam”) is recorded. This test provides a comparison between the foaming characteristics of various aqueous compositions. The results for the foam control agents prepared in Examples 1-28 are reported in Table 1 along with comparative data for a 0.1 wt % solution of DOSS with no added foam control agent (Example 29).
smiles,measurement,setting,value
CC(C)COCC(O)CNCCN (racemic) [EDA/1 IBGE],"γ at 0.1 wt %, 0.1 b/s","[1]; 0.1 wt % in distilled water, 0.1 b/s",47.9 dyne/cm
same,"γ at 0.1 wt %, 1 b/s","[1]; 0.1 wt % in distilled water, 1 b/s",51.9 dyne/cm
same,"γ at 0.1 wt %, 6 b/s","[1]; 0.1 wt % in distilled water, 6 b/s",53.8 dyne/cm
same,"γ at 0.1 wt %, 20 b/s","[1]; 0.1 wt % in distilled water, 20 b/s",59.6 dyne/cm
same,"γ limiting, 0.1 b/s","[1]; saturated solution made using 5.0 wt % in water, 0.1 b/s",29.7 dyne/cm
same,"γ limiting, 1 b/s","[1]; saturated solution made using 5.0 wt % in water, 1 b/s",30.1 dyne/cm
same,"γ limiting, 6 b/s","[1]; saturated solution made using 5.0 wt % in water, 6 b/s",30.5 dyne/cm
same,"γ limiting, 20 b/s","[1]; saturated solution made using 5.0 wt % in water, 20 b/s",31.7^b dyne/cm
same,Foam height after 1 min,[2]; after 1 min,1.0 cm
same,Foam height after 10 min,[2]; after 10 min,0.3 cm
same,Initial foam height,[2]; ambient temperature,1.5 cm
